Test results reported in the supplement of paper PMC10307832.

Experiments:
Test in all cases: relative viability (nuclei count vs DMSO), 5 days (fraction); higher = more cells survive
[1] = compound: CC(C)(C)c1cc(NC(=O)Nc2ccc(-c3cn4c(n3)sc3cc(OCCN5CCOCC5)ccc34)cc2)no1 [Quizartinib] + Cc1nc(Nc2ncc(C(=O)Nc3c(C)cccc3Cl)s2)cc(N2CCN(CCO)CC2)n1 [Dasatinib] (partner 0.075 µM)
Method in brief: (§1)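 Five library-drug doses in √10 steps were combined with a fixed anchor-drug dose, or a single drug was given alone, by pin tool to lung cancer cell lines in 1536-well plates the day after seeding. Nuclei were stained and counted after 5 days. Relative viability is the nuclei count in treated wells over that in vehicle wells, taken as the median of duplicate plates.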

[2] = compound: COCC[n+]1c2c(n(Cc3cnccn3)c1C)C(=O)c1ccccc1C2=O [YM155] + CC(=O)Nc1cccc(-n2c(=O)n(C3CC3)c(=O)c3c(Nc4ccc(I)cc4F)n(C)c(=O)c(C)c32)c1 [Trametinib] (partner 0.02 µM)
Method in brief: as §1

[3] = compound: COCC[n+]1c2c(n(Cc3cnccn3)c1C)C(=O)c1ccccc1C2=O [YM155] + CS(=O)(=O)N1CCN(Cc2cc3nc(-c4cccc5[nH]ncc45)nc(N4CCOCC4)c3s2)CC1 [Pictilisib] (partner 1 µM)
Method in brief: as §1

[4] = compound: COCC[n+]1c2c(n(Cc3cnccn3)c1C)C(=O)c1ccccc1C2=O [YM155] + COc1cc2c(Oc3ccc(NC(=O)C4(C(=O)Nc5ccc(F)cc5)CC4)cc3F)ccnc2cc1OCCCN1CCOCC1 [Foretinib] (partner 0.25 µM)
Method in brief: as §1

Cell Line | relative viability ([1]; first compound 0.001 µM) | relative viability ([1]; first compound 0.003162 µM) | relative viability ([1]; first compound 0.01 µM) | relative viability ([1]; first compound 0.03162 µM) | relative viability ([1]; first compound 0.1 µM) | relative viability ([2]; first compound 0.002 µM) | relative viability ([2]; first compound 0.006325 µM) | relative viability ([2]; first compound 0.02 µM) | relative viability ([2]; first compound 0.06325 µM) | relative viability ([3]; first compound 0.002 µM) | relative viability ([3]; first compound 0.006325 µM) | relative viability ([3]; first compound 0.02 µM) | relative viability ([3]; first compound 0.06325 µM) | relative viability ([4]; first compound 0.002 µM) | relative viability ([4]; first compound 0.006325 µM) | relative viability ([4]; first compound 0.02 µM) | relative viability ([4]; first compound 0.06325 µM)
HCC-366 | 0.531 | 0.548 | 0.575 | 0.612 | 0.657 | 0.353 | 0.421 | 0.371 | 0.353 | 0.376 | 0.124 | 0.125 | 0.134 | 0.924 | 0.899 | 0.951 | 1.11
HCC-827 | 0.315 | 0.396 | 0.325 | 0.274 | 0.281 | 0.528 | 0.531 | 0.605 | 0.628 | 1 | 0.763 | 1 | 1.09 | 1.03 | 1.09 | 1.07 | 1.06
HOP-62 | 0.564 | 0.589 | 0.638 | 0.652 | 0.662 | 0.389 | 0.389 | 0.419 | 0.424 | 0.79 | 0.63 | 0.818 | 0.749 | 0.979 | 1.04 | 1.17 | 1.02
IA-LM |  |  |  |  |  |  |  |  |  | 0.312 | 0.266 | 0.367 | 0.141 | 1.15 | 1.03 | 1.33 | 0.975
LC-2-ad | 0.48 | 0.799 | 0.546 |  | 0.5 | 0.928 | 0.925 | 0.866 | 0.87 | 0.455 | 0.586 | 0.568 | 0.452 | 0.923 | 0.967 | 0.884 | 0.666
LCLC-97TM1 | 0.856 | 0.735 | 0.842 | 0.892 | 0.738 |  | 0.178 | 0.23 | 0.21 | 0.184 | 0.208 | 0.221 | 0.148 | 0.924 | 0.97 | 1.07 | 0.97
LCLC-103H | 0.461 | 0.454 | 0.402 | 0.557 | 0.487 | 0.647 | 0.637 | 0.674 | 0.716 | 0.595 | 0.654 | 0.668 | 0.508 | 0.802 | 0.722 | 0.815 | 0.839
LK-2 | 0.31 |  | 0.313 | 0.205 | 0.284 | 0.631 | 0.717 | 0.827 | 0.851 | 0.565 | 0.541 | 0.475 | 0.53 | 1.02 | 1.32 | 1.29 | 1.22
LOU-NH91 | 0.574 | 0.615 | 0.553 | 0.524 | 0.62 | 0.8 | 0.747 | 0.807 | 0.788 | 0.495 | 0.519 | 0.578 | 0.535 | 0.92 | 0.98 | 1.02 | 0.937
LU99A | 0.419 | 0.592 | 0.523 | 0.467 | 0.135 | 0.539 | 0.496 | 0.641 | 0.56 | 0.354 | 0.335 | 0.315 | 0.284 | 0.806 | 0.866 | 0.905 | 0.884
LXF-289 | 0.218 | 0.21 | 0.29 | 0.254 | 0.29 | 0.665 | 0.746 | 0.697 | 0.711 | 0.772 | 0.771 | 0.752 | 0.549 | 1 | 1.01 | 1.02 | 0.97
NCI-H522 | 0.861 | 0.861 | 1.11 | 0.794 | 0.882 | 0.625 | 0.711 | 0.71 | 0.75 |  |  |  |  |  |  |  | 
NCI-H1299 |  |  |  |  |  |  |  |  |  | 0.653 | 0.803 | 0.845 | 0.516 | 1.12 | 1.07 | 1.16 | 1.04
NCI-H1563 | 0.523 | 0.505 | 0.458 | 0.468 | 0.493 |  |  |  |  | 0.633 | 0.674 | 0.626 | 0.75 | 0.89 | 0.935 | 1.09 | 1.02
NCI-H1623 | 0.502 | 0.627 | 0.507 | 0.623 | 0.598 |  |  |  |  |  |  |  |  | 0.89 | 0.865 | 0.987 | 0.872
NCI-H1703 |  |  |  |  |  |  |  |  |  | 0.26 | 0.232 | 0.248 | 0.116 | 0.309 | 0.355 | 0.381 | 0.276
NCI-H1792 |  | 0.742 | 0.84 | 0.658 | 0.836 | 0.498 | 0.366 | 0.468 | 0.599 | 0.331 | 0.289 | 0.318 | 0.267 |  |  |  | 
NCI-H2342 | 0.31 | 0.314 | 0.308 | 0.285 | 0.316 | 0.738 | 0.71 | 0.829 | 0.757 |  |  |  |  | 1 | 1.14 | 1.14 | 1.03
SW 900 | 0.557 | 0.294 |  | 0.563 | 0.616 |  | 0.922 | 0.843 | 0.809 |  |  |  |  | 0.874 | 0.622 | 1.15 | 0.905
